Patent US20240166626A1, “Compounds and Methods for Preventing, Treating, or Ameliorating Airway Disease” (THOMAS JEFFERSON UNIVERSITY, priority 2021, published 2024)

Target: β2AR-Gs (Homo sapiens, UniProt P07550)
Assay: Gs activation by [35S]GTPγS binding, reconstituted β2AR-Gs in lipid bicelles
Format: biochemical
Settings: 10 μM DFPQ, 1 μM ISO, FIG. 5E
Method: FIGS. 5A-5E illustrate certain embodiments of the disclosure. FIG. 5A: Primary titration screening data of DFPQ. […] FIGS. 5C and 5D: […] Wells were read every 2 min post agonist addition. FIG. 5E: […] Bound [^35S]-GTPγS was collected by rapid filtration on GF/B filters, washed 4 times with 4 ml of cold GTPγS wash buffer and analyzed by liquid scintillation. […]® ADRB2 cells (DiscoveRx) were maintained with the AssayCompleteTM Cell Culture kit (DiscoveRx catalog #92-[…]). […] HEK 293 cells stably overexpressing β2AR included 250 μg/ml G418. Cells were incubated at 37° C. in a humidified incubator with 5% CO2. […] Cells were read every three minutes for 18 minutes on a PolarStar Optima plate reader (BMG) to establish peak signal. […] Luminescence was determined at room temperature (23-25° C.) on a PolarStar Optima plate reader (BMG). […] Relative assay bias was calculated from the ratio of normalized cAMP and arrestin recruitment responses. […] BRET was measured using a Tecan Infinite F500 microplate reader. […] Bound [35 S]GTPγS was collected by rapid filtration on GF/B filters, washed 4 times with 4 ml of cold GTPγS wash buffer and analyzed by liquid scintillation counting. […] Immunoprecipitated proteins were separated by SDS-PAGE and analyzed by western blot using a β2AR C-terminal tail or phospho-specific antibody. […] Band intensity was measured by densitometry using ImageJ. […]

β2AR-Gs, sequence (P07550 whole entry): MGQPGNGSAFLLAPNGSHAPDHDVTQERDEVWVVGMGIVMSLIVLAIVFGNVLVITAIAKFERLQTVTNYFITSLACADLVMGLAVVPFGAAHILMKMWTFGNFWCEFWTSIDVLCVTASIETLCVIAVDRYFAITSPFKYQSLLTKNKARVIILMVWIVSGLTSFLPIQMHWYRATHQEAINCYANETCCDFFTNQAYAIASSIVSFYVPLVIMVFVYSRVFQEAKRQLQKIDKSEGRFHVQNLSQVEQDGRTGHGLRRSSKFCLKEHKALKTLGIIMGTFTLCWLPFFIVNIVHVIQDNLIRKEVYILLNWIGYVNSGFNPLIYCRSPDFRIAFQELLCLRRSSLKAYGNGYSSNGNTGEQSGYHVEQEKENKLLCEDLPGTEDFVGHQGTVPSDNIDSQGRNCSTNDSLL
β2AR-Gs, sequence (P63092 whole entry partner): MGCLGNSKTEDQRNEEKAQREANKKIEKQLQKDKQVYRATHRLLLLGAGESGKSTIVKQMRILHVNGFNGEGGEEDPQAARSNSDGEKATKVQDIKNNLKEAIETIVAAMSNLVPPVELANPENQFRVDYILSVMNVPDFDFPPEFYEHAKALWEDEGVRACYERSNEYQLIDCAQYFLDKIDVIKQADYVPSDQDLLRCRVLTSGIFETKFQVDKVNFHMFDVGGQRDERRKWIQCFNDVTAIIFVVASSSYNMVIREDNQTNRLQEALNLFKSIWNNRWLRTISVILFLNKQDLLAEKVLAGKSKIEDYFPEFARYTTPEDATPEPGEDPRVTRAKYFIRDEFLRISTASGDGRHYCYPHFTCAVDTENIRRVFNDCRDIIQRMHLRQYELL
β2AR-Gs, sequence (P62873 whole entry partner): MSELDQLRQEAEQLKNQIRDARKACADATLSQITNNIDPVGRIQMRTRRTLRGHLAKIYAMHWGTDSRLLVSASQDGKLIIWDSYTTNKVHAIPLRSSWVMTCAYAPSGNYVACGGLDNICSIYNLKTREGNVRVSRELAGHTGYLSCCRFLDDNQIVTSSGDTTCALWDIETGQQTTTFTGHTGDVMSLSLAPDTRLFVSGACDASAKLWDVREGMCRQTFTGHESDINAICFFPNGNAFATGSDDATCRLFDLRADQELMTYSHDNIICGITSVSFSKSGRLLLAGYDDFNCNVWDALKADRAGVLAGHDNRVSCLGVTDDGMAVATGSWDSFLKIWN
β2AR-Gs, sequence (P59768 2-68 partner): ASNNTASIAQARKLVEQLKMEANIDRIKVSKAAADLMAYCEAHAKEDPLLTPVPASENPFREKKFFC

- effect on ISO-dependent activation of purified Gs by the β2AR (GTPγS binding): no effect
Structure (SMILES): Fc1ccc(Nc2nc(NC3CCCCC3)c3ccccc3n2)cc1F [DFPQ, N^4-cyclohexyl-N^2-(3,4-difluorophenyl)quinazoline-2,4-diamine]
